Test: stability of Compound (1a) under crystallization conditions (Comparative Test Examples 1 and 2)
Format: physicochemical
Experimental: Subsequently, stability of Compound (1a) under crystallization conditions was tested. The results are shown in the following Comparative Test Examples 1 and 2.
200 mg of oily 7-phenylacetamido-3-chloromethyl-cephem-4-carboxylic acid p-methoxybenzyl ester was dissolved in 0.2 ml of dimethylformamide. The solution was pored into 1 ml of methanol precooled to 3° C. to precipitate crystals. The mixture was stirred at 3 to 5° C. for 20 hours. Then, an ethyl acetate/water mixture was added to dissolve the crystals, and the solution was subjected to extraction. The organic layer was dried over sodium sulfate. The resulting solution was filtered, and the filtrate was concentrated under reduced pressure. The concentrate was purified by silica gel chromatography (Wako gel C-200, benzene/ethyl acetate=4/1), giving 197 mg of oily 7-phenylacetamido-3-chloromethyl-cephem-4-carboxylic-acid-p-methoxybenzyl ester (yield: 99%).
200 mg of oily 7-phenylacetamido-3-chloromethyl-cephem-4-carboxylic acid p-methoxybenzyl ester was dissolved in 0.2 ml of dimethylformamide. The solution was pored into 1 ml of methanol to precipitate crystals. The mixture was stirred at 30 to 35° C. for 20 hours. Then, an ethyl acetate/water mixture was added to dissolve the crystals, and the solution was subjected to extraction. The organic layer was dried over sodium sulfate. The resulting solution was filtered, and the filtrate was concentrated under reduced pressure.
For example, thin-layer chromatography of the obtained product (conditions: Merk Pre-Coated TLC Plates SILICA GEL 60F254 (Merk); benzene/ethyl acetate=4/1) developed color in zones corresponding to 7-phenylacetamide-3-chloromethyl-cephem-4-carboxylic acid p-methoxybenzyl ester (Compound (1a)) (Rf=0.46), 7-phenylacetamide-3-methoxymethyl-cephem-4-carboxylic acid p-methoxybenzyl ester (Compound A) (Rf=0.33) and decomposition product of Compound (1a) (Rf≈0, in the vicinity of the placing point). […]

[1] = dimethylformamide solution poured into uncooled methanol, stirred at 30 to 35° C. for 20 hours

7-phenylacetamido-3-chloromethyl-cephem-4-carboxylic acid p-methoxybenzyl ester recovered (yield) (dimethylformamide solution poured into methanol precooled to 3° C., stirred at 3 to 5° C. for 20 hours): 99%
Compound (1a) recovered (yield) [1]: 71%
highly polar component Compound A formed (yield) [1]: 9%
SMILES: COc1ccc(COC(=O)C2=C(CCl)CS[C@@H]3C(NC(=O)Cc4ccccc4)C(=O)N23)cc1 (stereo partly drawn) [Compound (1a), 7-phenylacetamido-3-chloromethyl-cephem-4-carboxylic acid p-methoxybenzyl ester]

— patent publication US20020099206A1, “Cephalosporin crystals and process for their preparation” (priority 1997, published 2002)
